According to ChEMBL document CHEMBL6092200, “Structure-guided inhibitor design targeting CntL provides the first chemical validation of the staphylopine metallophore system in bacterial metal acquisition” (Eur J Med Chem, 2024):
pIC50, pKd: −log10 of the molar value. Active and inactive are the calls of the source. The rule behind the calls is not given here.

Assays:
[1] = target: T1, D-histidine 2-aminobutanoyltransferase (Staphylococcus aureus (strain Mu50 / ATCC 700699)) (UniProt A0A0H3JXA8); experiment: Induction of thermal stabilization of Staphylococcus aureus ATCC 700699 CntL assessed as change in melting temperature by fluorescence-based thermal shift assay
T1 sequence (whole entry): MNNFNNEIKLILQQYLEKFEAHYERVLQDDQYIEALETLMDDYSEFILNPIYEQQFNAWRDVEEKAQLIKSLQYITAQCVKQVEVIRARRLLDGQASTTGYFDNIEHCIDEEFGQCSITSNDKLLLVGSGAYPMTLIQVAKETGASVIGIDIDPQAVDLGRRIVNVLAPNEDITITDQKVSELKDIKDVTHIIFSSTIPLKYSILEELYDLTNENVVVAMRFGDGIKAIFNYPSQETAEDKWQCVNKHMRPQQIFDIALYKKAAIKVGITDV

[2] = target: T2, L-histidine 2-aminobutanoyltransferase (Pseudomonas aeruginosa) (UniProt Q9HUX4); experiment: Binding affinity to N-terminal his6-tagged Pseudomonas aeruginosa CntL assessed as change in entropy by ITC analysis
T2 sequence (whole entry): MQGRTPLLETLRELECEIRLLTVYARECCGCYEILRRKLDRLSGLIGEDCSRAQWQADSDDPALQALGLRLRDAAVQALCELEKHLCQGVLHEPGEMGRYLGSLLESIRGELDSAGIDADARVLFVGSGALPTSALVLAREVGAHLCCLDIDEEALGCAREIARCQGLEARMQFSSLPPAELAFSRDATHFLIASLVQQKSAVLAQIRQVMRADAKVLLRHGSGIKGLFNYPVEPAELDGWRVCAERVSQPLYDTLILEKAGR

[3] = target: T1, D-histidine 2-aminobutanoyltransferase (Staphylococcus aureus (strain Mu50 / ATCC 700699)); experiment: Induction of thermal stabilization of Staphylococcus aureus ATCC 700699 CntL assessed as change in melting temperature at 100 uM by fluorescence-based thermal shift assay
[4] = target: T3, L-histidine 2-aminobutanoyltransferase (Pseudomonas aeruginosa, UniProt Q9HUX4); experiment: Binding affinity to N-terminal his6-tagged Pseudomonas aeruginosa CntL assessed as dissociation constant by ITC analysis
T3 sequence (Q9HUX4 whole entry): T2 sequence (whole entry)

[5] = target: T4, D-histidine 2-aminobutanoyltransferase (Staphylococcus aureus (strain Mu50 / ATCC 700699), UniProt A0A0H3JXA8); experiment: Inhibition of N-terminal his6-tagged Staphylococcus aureus ATCC 700699 CntL using SAM as substrate preincubated with compound for 10 mins followed by substrate addition and measured after 25 mins in presence of NADPH by microplate reader analysis
T4 sequence (A0A0H3JXA8 whole entry): T1 sequence (whole entry)

[6] = target: T2, L-histidine 2-aminobutanoyltransferase (Pseudomonas aeruginosa); experiment: Binding affinity to N-terminal his6-tagged Pseudomonas aeruginosa CntL assessed as change in enthalpy by ITC analysis
[7] = target: T4, D-histidine 2-aminobutanoyltransferase; experiment: Binding affinity to N-terminal his6-tagged Staphylococcus aureus ATCC 700699 CntL assessed as dissociation constant by ITC analysis
[8] = target: T2, L-histidine 2-aminobutanoyltransferase (Pseudomonas aeruginosa); experiment: Induction of thermal stabilization of N-terminal his6-tagged Pseudomonas aeruginosa CntL assessed as increase in melting temperature at 500 uM by fluorescence-based thermal shift assay
[9] = target: T1, D-histidine 2-aminobutanoyltransferase (Staphylococcus aureus (strain Mu50 / ATCC 700699)); experiment: Binding affinity to N-terminal his6-tagged Staphylococcus aureus ATCC 700699 CntL assessed as change in enthalpy by ITC analysis
[10] = target: T1, D-histidine 2-aminobutanoyltransferase (Staphylococcus aureus (strain Mu50 / ATCC 700699)); experiment: Inhibition of N-terminal his6-tagged Staphylococcus aureus ATCC 700699 CntL at 5 uM using SAM as substrate preincubated with compound for 10 mins followed by substrate addition and measured after 25 mins in presence of NADPH by microplate reader analysis relative to control; settings: time 35.0 min
[11] = target: T1, D-histidine 2-aminobutanoyltransferase (Staphylococcus aureus (strain Mu50 / ATCC 700699)); experiment: Binding affinity to N-terminal his6-tagged Staphylococcus aureus ATCC 700699 CntL assessed as gibbs free energy change by ITC analysis
[12] = target: T2, L-histidine 2-aminobutanoyltransferase (Pseudomonas aeruginosa); experiment: Binding affinity to N-terminal his6-tagged Pseudomonas aeruginosa CntL assessed as change in gibbs free energy by ITC analysis
[13] = target: T1, D-histidine 2-aminobutanoyltransferase (Staphylococcus aureus (strain Mu50 / ATCC 700699)); experiment: Binding affinity to N-terminal his6-tagged Staphylococcus aureus ATCC 700699 CntL assessed as change in entropy by ITC analysis
[14] = target: T1, D-histidine 2-aminobutanoyltransferase (Staphylococcus aureus (strain Mu50 / ATCC 700699)); experiment: Induction of thermal stabilization of Staphylococcus aureus ATCC 700699 CntL assessed as melting temperature by fluorescence-based thermal shift assay
[15] = target: T1, D-histidine 2-aminobutanoyltransferase (Staphylococcus aureus (strain Mu50 / ATCC 700699)); experiment: Induction of thermal stabilization of Staphylococcus aureus ATCC 700699 CntL assessed as melting temperature in presence of D-His by fluorescence-based thermal shift assay
[16] = target: T1, D-histidine 2-aminobutanoyltransferase (Staphylococcus aureus (strain Mu50 / ATCC 700699)); experiment: Induction of thermal stabilization of Staphylococcus aureus ATCC 700699 CntL assessed as melting temperature in presence of L-His by fluorescence-based thermal shift assay
[17] = target: T1, D-histidine 2-aminobutanoyltransferase (Staphylococcus aureus (strain Mu50 / ATCC 700699)); experiment: Induction of thermal stabilization of Staphylococcus aureus ATCC 700699 CntL assessed as change in melting temperature in presence of histidine by fluorescence-based thermal shift assay
[18] = target: T1, D-histidine 2-aminobutanoyltransferase (Staphylococcus aureus (strain Mu50 / ATCC 700699)); experiment: Induction of thermal stabilization of Staphylococcus aureus ATCC 700699 CntL assessed as melting temperature in presence of xNA by fluorescence-based thermal shift assay
[19] = target: T1, D-histidine 2-aminobutanoyltransferase (Staphylococcus aureus (strain Mu50 / ATCC 700699)); experiment: Inhibition of N-terminal his6-tagged Staphylococcus aureus ATCC 700699 CntL assessed as reduction in intracellular nickel ion level at 100 uM by ICP-MS analysis; type: cell-based
Staphylococcus aureus [20] = experiment: Antibacterial activity against Staphylococcus aureus […] assessed as effect on bacterial growth at 100 uM incubated for 12 hrs in presence of LB medium; type: functional, organism-based
Staphylococcus aureus [21] = experiment: Antibacterial activity against Staphylococcus aureus […] assessed as effect on bacterial growth at 100 uM incubated for 12 hrs in presence of chemically defined medium; type: functional, organism-based
[22] = target: T1, D-histidine 2-aminobutanoyltransferase (Staphylococcus aureus (strain Mu50 / ATCC 700699)); experiment: Inhibition of N-terminal his6-tagged Staphylococcus aureus ATCC 700699 CntL assessed as reduction in intracellular cobalt ion level at 100 uM by ICP-MS analysis; type: cell-based
[23] = target: T1, D-histidine 2-aminobutanoyltransferase (Staphylococcus aureus (strain Mu50 / ATCC 700699)); experiment: Inhibition of N-terminal his6-tagged Staphylococcus aureus ATCC 700699 CntL assessed as reduction in intracellular iron level at 100 uM by ICP-MS analysis; type: cell-based
Staphylococcus aureus [24] = experiment: Antibacterial activity against Staphylococcus aureus […] assessed as effect on bacterial growth at 100 uM incubated for 12 hrs in presence of dCDM medium; type: functional, organism-based

| Compound | ΔTm [1] [°C] | -TdeltaS [2] [kcal/mol] | ΔTm [3] [°C] | pKd [4] | pIC50 [5] | deltaH [6] [kcal/mol] | pKd [7] | Activity [8] | deltaH [9] [kcal/mol] | inhibition [10] [%] | deltaG [11] [kcal/mol] | deltaG [12] [kcal/mol] | -TdeltaS [13] [kcal/mol] | further results |
| --- | --- | --- | --- | --- | --- | --- | --- | --- | --- | --- | --- | --- | --- | --- |
| Nc1ncnc2c1ncn2[C@@H]1O[C@H](CSCCN[C@@H](Cc2c[nH]cn2)C(=O)O)[C@@H](O)[C@H]1O | 1 | -4.84 | 8.4 | 6.66 | 7.22 | -4.25 | 7.39 | Active | -17.8 | 92 | -10.1 | -9.1 | 7.72 |  |
| Nc1ncnc2c1ncn2[C@@H]1O[C@H](CSCCCN[C@@H](Cc2c[nH]cn2)C(=O)O)[C@@H](O)[C@H]1O | 0.7 | 0.149 | 7.7 | 6.22 | 6.92 | -8.65 | 6.74 | Active | -18.3 | 96 | -9.2 | -8.48 | 9.07 |  |
| Nc1ncnc2c1ncn2[C@@H]1O[C@H](CSCCCNC(=O)[C@H](N)Cc2c[nH]cn2)[C@@H](O)[C@H]1O |  |  | 0.7 |  |  |  |  |  |  | < 20 |  |  |  |  |
| COc1nc(N)c2ncn([C@@H]3O[C@H](CSCCCN[C@@H](Cc4c[nH]cn4)C(=O)O)[C@@H](O)[C@H]3O)c2n1 | 4.7 |  |  |  |  |  |  |  |  |  |  |  |  |  |
| CSC[C@H]1O[C@@H](n2cnc3c(N)ncnc32)[C@H](O)[C@@H]1O [METHYLTHIOADENOSINE] |  | 0.078 |  | 4.81 |  | -6.63 | 4.96 |  | -23.3 |  | -6.84 | -6.55 | 16.4 | Tm [14]: 56.3 °C; Tm [15]: 59 °C; Tm [16]: 59 °C; ΔTm [17]: 3.4 °C; Tm [18]: 59.3 °C |
| Nc1nc(Cl)nc2c1ncn2[C@@H]1O[C@H](CSCCN[C@@H](Cc2c[nH]cn2)C(=O)O)[C@@H](O)[C@H]1O | 9.4 |  |  |  | ~7.22 |  | 7.68 | Active | -10.9 |  | -10.5 |  | 0.448 | inhibition [19]: Active; Activity (Staphylococcus aureus [20]): inactive; Activity (Staphylococcus aureus [21]): inactive; inhibition [22]: Active; inhibition [23]: Active; Activity (Staphylococcus aureus [24]): inactive |
| Nc1ncnc2c1ncn2[C@@H]1O[C@H](CSCCC(=O)N[C@@H](Cc2c[nH]cn2)C(=O)O)[C@@H](O)[C@H]1O |  |  | 1.7 |  |  |  |  |  |  | < 20 |  |  |  |  |
| Nc1nc(Cl)nc2c1ncn2[C@@H]1O[C@H](CSCCCNC(Cc2c[nH]cn2)C(=O)O)[C@@H](O)[C@H]1O (single isomer, unassigned) | 8.4 |  |  |  |  |  |  | Active |  |  |  |  |  |  |
